Drawing on patent EP3421460A1, “2-[(4-ALKYLPHENOXY)-PYRIDINYL]-1-(1,2,4-TRIAZOL-1-YL)ALKAN-2-OL FUNGICIDES” (Bayer Aktiengesellschaft, priority 2018, dated 2019), this text covers Efficacy in% and chromatographic logP for five compounds.

One data set has as its system Phakopsora pachyrhizi. Nature of the data set: in vivo curative test on Phakopsora (soybeans). The settings on record: sprayed 3 days after inoculation, evaluated 7 days after inoculation. The procedure: Example A: in vivo curative test on Phakopsora (soybeans); comparison of compound I-01 according to the invention vs. related compounds known from WO-A 2017/029179 and WO-A 2013/007767, respectively [table] To produce a suitable preparation of active compound, 1 part by weight of active compound is mixed with the stated amounts of solvent and emulsifier, and the concentrate is diluted with water to the desired concentration. To test for curative activity, young plants are inoculated with an aqueous spore suspension of the causal agent of soybean rust (Phakopsora pachyrhizi) and stay for 24h without light in an incubation cabinet at approximately 24°C and a relative atmospheric humidity of 95 %. The plants remain in the incubation cabinet at approximately 24°C and a relative atmospheric humidity of approximately 80 % and a day / night interval of 12h. 3 days after the inoculation, the plants are sprayed with the preparation of active compound at the stated rate of application. The test is evaluated 7 days after the inoculation. 0% means an efficacy which corresponds to that of the untreated control, while an efficacy of 100% means that no disease is observed. Table: in vivo curative test on Phakopsora test (soybeans)

Data set [1] can be described thus: LogP measurement by HPLC on reversed phase columns (EEC directive 79/831 Annex V.A8). The data set is classed as physicochemical. The settings on record: reversed phase HPLC column; method [a]: LC-UV, acidic range, 0.1% formic acid in water and acetonitrile as eluent. The procedure:
LogP values: Measurement of LogP values was performed according to EEC directive 79/831 Annex V.A8 by HPLC (High Performance Liquid Chromatography) on reversed phase columns with the following methods: • [a] […] If more than one LogP value is available within the same method, all the values are given and separated by "+". Calibration was done with straight-chain alkan2-ones (with 3 to 16 carbon atoms) with known LogP values (measurement of LogP values using retention times with linear interpolation between successive alkanones). Lambda-max-values were determined using UV-spectra from 200 nm to 400 nm and the peak values of the chromatographic signals.

Another data set has as its system Podosphaera leucotricha. Nature of the data set: in vivo curative test on Podosphaera (apples). The note with it: sprayed 2 days after inoculation, evaluated 10 days after inoculation. The procedure:
Example B: in vivo curative test on Podosphaera (apples); comparison of compound I-01 according to the invention vs. related compounds known from WO-A 2017/029179 and WO-A 2013/007767, respectively [table] To produce a suitable preparation of active compound, 1 part by weight of active compound is mixed with the stated amounts of solvent and emulsifier, and the concentrate is diluted with water to the desired concentration. To test for curative activity, young plants are inoculated with an aqueous spore suspension of the causal agent of apple mildew (Podosphaera leucotricha). The plants are placed in a greenhouse at approximately 23°C under relative atmospheric humidity of approximately 70%. 2 days after the inoculation, the plants are sprayed with the preparation of active compound at the stated rate of application. The test is evaluated 10 days after the inoculation. 0% means an efficacy which corresponds to that of the untreated control, while an efficacy of 100% means that no disease is observed. Table: in vivo curative test on Podosphaera test (apples)

Each structure is given as a SMILES string.

Usually chromatographic logP stands for a lipophilicity value derived from retention on a column. Read a high chromatographic logP as higher lipophilicity. Take `Cc1ccc(Oc2ccc(C(C)(O)Cn3cncn3)c(C(F)(F)F)n2)cc1` (stereo not shown) [I-01, 2-[6-(4-methylphenoxy)-2-(trifluoromethyl)pyridin-3-yl]-1-(1,2,4-triazol-1-yl)propan-2-ol]: the Efficacy in% in the data set on Phakopsora pachyrhizi (rate of application 5 ppm) came to 86%; in the data set on Phakopsora pachyrhizi (rate of application 10 ppm), 83%; with Podosphaera leucotricha (rate of application 1 ppm), 86%; in the data set on Podosphaera leucotricha (rate of application 10 ppm), 99%. Further, the chromatographic logP in data set [1] was 2.69.
On to `CC(O)(Cn1cncn1)c1ccc(Oc2ccc(S(F)(F)(F)(F)F)cc2)nc1C(F)(F)F` (stereo not shown) [drawing 9], for which the Efficacy in% in the data set on Phakopsora pachyrhizi (rate of application 5 ppm) and in the data set on Phakopsora pachyrhizi (rate of application 10 ppm) was 0% throughout.
On to `CC(O)(Cn1cncn1)c1ccc(Oc2ccc(Cl)cc2)cc1C(F)(F)F` (stereo not shown) [drawing 10], for which the Efficacy in% in the data set with Phakopsora pachyrhizi (rate of application 5 ppm) was determined as 8%; in the data set on Phakopsora pachyrhizi (rate of application 10 ppm), 15%.
`CC(O)(Cn1cncn1)c1ccc(Oc2ccc(S(F)(F)(F)(F)F)cc2)nc1C(F)(F)F` (stereo not shown) [drawing 12]: the Efficacy in% with Podosphaera leucotricha (rate of application 1 ppm) is 62%; in the data set with Podosphaera leucotricha (rate of application 10 ppm), 92%.
As to `CC(O)(Cn1cncn1)c1ccc(Oc2ccc(Cl)cc2)cc1C(F)(F)F` (stereo not shown) [drawing 13], the Efficacy in% in the data set on Podosphaera leucotricha (rate of application 1 ppm) came to 71%; with Podosphaera leucotricha (rate of application 10 ppm), 95%.
